In a melting point compilation (Tetko et al.; mined from patent text by program, amines drawn as free bases though some values may be those of a salt):

| melting point | Structure (SMILES) |
| --- | --- |
| 261 to 263 °C | COc1cc(OC)c2c(=O)c3oc4ccccc4c3oc2c1 |
| 119 to 121 °C | COC(=O)c1c(Oc2ccccc2[N+](=O)[O-])c2ccccc2n1C |
| 152 to 154 °C | COc1cc2c(cc1OC)C(C=Cc1ccc(N)cc1)=NNC(C)C2 (stereo not given) |
| 175 to 177 °C | O=C1N(Cc2ccc(C(F)(F)F)o2)c2ccccc2C12COc1cc3c(nc12)OCO3 (stereo not given) |
| 153 to 160 °C | CC(=O)NC1(C#N)CC(C)(C)NC(C)(C)C1 |
| 97 to 99 °C | COC(=O)N(C(=O)Cl)c1ccc(OC(F)(F)F)cc1 |
| 211 °C | CC(C)(C)C(O)CN1CCC(CCC(=O)c2cc(Cl)c(N)[nH]c2=O)CC1 (stereo not given) |
| 242 to 245 °C | CN(C)c1ccc(-c2cc(=O)c3ccc(O)c(O)c3o2)cc1 |
| 195 to 198 °C | CC(=O)c1ccc(OC2SCC(O)C(O)C2O)cc1 (stereo not given) |
| 170 to 175 °C | Cc1cnc2cc(-c3cn(C)c4ccccc34)[nH]c2n1 |
| 198 to 201 °C | Cc1cccc(-n2c(-c3sc(Nc4ccccc4)nc3C)nc3ccccc3c2=O)c1 |
| 167 to 170 °C | NC1=NC=C(c2ccc(C(F)(F)F)cc2)c2ccccc2C1 |
| 151 to 152 °C | CCOC(=O)C1=C(C)NC(C)=C(C(=O)OCC)C1c1ccccc1F |
| 126 to 130 °C | Cc1ccc(C(=O)[C@@](O)(C(=O)O)[C@H](O)C(=O)O)cc1 |
| 165 to 167 °C | CCOC(=O)C=Cc1c(C)nc(SCc2ccc(OC)cc2)n1C |
| 120 °C | CCCCCCCCC=CCCCCCCCCn1c(=O)[nH][nH]c1=O |
| 145 to 147 °C | O=C(O)C=CC(=O)c1ccc(Oc2ccccc2Cl)cc1 |
| 176 to 178 °C | CCCCCCCCCCCCCCNC(=O)Nc1sc(C(=O)O)c(C)c1C(=O)OC(C)(C)C |
| 255 °C | COCc1c(C(=O)NC(C)C)ncc2[nH]c3cccc(Oc4ccc(Cl)cc4)c3c12 |
| 216 to 217 °C | O=C(O)CCCOc1cccc(-c2n[nH]c3c2Cc2ccccc2-3)c1 |
| 199 to 201 °C | CC(C)(C)OC(=O)NC1CCCCCC=CC2CC2(C(=O)NS(=O)(=O)C2CC2)NC(=O)C2CC(OC(=O)c3ccc4c(c3)OCCO4)CN2C1=O (stereo not given) |
| 185 to 188 °C | O=c1[nH][nH]c(=O)n1Cc1ccccc1 |
| 229 to 230 °C | Cn1cc(C(=O)NCc2ccc(Cl)cc2)c(=O)c2cc(CO)oc21 |

| melting point | Structure (SMILES) |
| --- | --- |
| 181 to 185 °C | CCOC(=O)c1nc2ncnc(NCc3ccccc3)c2[nH]1 |
| 262 to 264 °C | Cc1cc(=O)n2c3c(cc(C(O)(C(F)(F)F)C(F)(F)F)cc13)OC2 |
| 227 °C | Cc1ccc(N2C(=O)C(O)=C(C(=NOCC(=O)O)c3ccc(C(C)C)cc3)C2c2ccc(OC(F)(F)F)cc2)nn1 (stereo not given) |
| 256 to 258 °C | CC(=NNC(N)=O)c1ccc(Nc2nccc(-c3cccnc3)n2)cc1 |
| 78 to 79 °C | COc1ccc(N2CCN(CCC3OCCc4ccc(Br)cc43)CC2)cc1 (stereo not given) |
| 80.2 to 88.2 °C | Cc1ccc(S(=O)(=O)NC2CCCCN(c3nc4c(c(=O)n(C)c(=O)n4C)n3Cc3ccccc3)C2)cc1 (stereo not given) |
| 108 to 110 °C | COc1ccc(-c2cc(=O)n(Cc3ccc(Cl)c(Cl)c3)nc2-c2ccc(OC)cc2)cc1 |
| 90 to 92 °C | Nc1ccc(-c2cccc(Cl)c2)cc1C(O)(C1CC1)C1CC1 |
| 210 to 212 °C | Cc1occc1C(=O)Nc1ccc(C(=O)N2Cc3cccn3Cc3ccccc32)cn1 |
| 195 to 198 °C | O=c1c2c(n(-c3cccc(Cl)c3)c3ncccc13)CCCC2 |
| 187 °C | CCOC(=O)CCNC(=O)CNC(=O)c1csc(NC(=O)NCc2ccccc2)n1 |
| 178 to 180 °C | CC(=O)c1c(-c2ccc(C(F)(F)F)cc2)[nH]c(-c2ccncc2)c1C |
| 164 to 166 °C | CC1(C(F)(F)F)CC(=O)C(C(=O)c2ccc(C(F)(F)F)cc2[N+](=O)[O-])C(=O)N1 (stereo not given) |
| 136 °C | Cc1cc(=O)oc2cc(S)ccc12 |
| 192 to 193 °C | CC(=O)c1cc(C(=O)O)c(O)c([N+](=O)[O-])c1 |
| 120 to 121 °C | CCC(=CC(CNC(=O)c1cnccn1)=NO)C(C)[N+](=O)[O-] (stereo not given) |
| 135 to 137 °C | CC(C)(C)n1c(=O)c2c(-c3ccc(F)cc3)ncn2c2ccccc21 |
| 85.5 to 86.5 °C | CC(C)N1CC2CC(C1)CN(S(=O)(=O)c1ccccc1)C2 |
| 182 to 185 °C | O=C(NC(=S)N1CCN(c2nc3cccccc-3n2)CC1)c1ccccc1 |
| 149 to 152 °C | CCCCn1c(NNC(=S)NC(C)=O)cc(=O)n(CCC)c1=O |
| 168 to 169 °C | CCCS(=O)(=O)c1cc([C@H]2CC[C@H](c3cc(OC)c(OC)c(OC)c3)O2)cc(OC)c1O (relative stereo) |
| 69 to 71 °C | CCOC(=O)C1=C(COCCOCCN)NC(C)=C(C(=O)OC)C1c1cccc(Cl)c1Cl (single isomer, unassigned; (-)) |
| 139 to 140 °C | Cc1oc(-c2ccco2)nc1COc1ccc(CC(=O)O)cc1 |

| melting point | Structure (SMILES) |
| --- | --- |
| 206 to 210 °C | COc1ccccc1Oc1c(O)nc(SC)nc1O |
| 186 to 188 °C | C=C1N(c2ccc(Cl)cc2)C(=O)OC12CCN(CCC=C(c1ccc(F)cc1)c1ccc(F)cc1)CC2 |
| 43 to 45 °C | C#CCCCCCCOC(c1ccccc1)(c1ccccc1)c1ccccc1 |
| 114 to 116 °C | CCCN(CCC)C(=O)C(CCC(=O)N(C)C)NC(=O)C=Cc1ccco1 (stereo not given) |
| 76 to 78 °C | COc1ccccc1COc1ccc(S(=O)(=O)c2ccc(C)nc2Br)cc1 |
| 162 to 163 °C | CC12C=CCC1c1ccc3cc(O)ccc3c1CC2 (stereo not given) |
| 61 °C | CCCCCCCCCCCCCCCCCCCCC(=S)NCCN1CCOCC1 |
| 247 to 248 °C | COc1ccc2nc3sc(C(=O)O)cn3c(=O)c2c1 |
| 103 to 110 °C | CCCOc1c(OCc2ccccc2)cc(C2CCC(c3cc(OC)c(OC)c(OC)c3)O2)cc1S(=O)(=O)CC(C)O (stereo not given) |
| 147 to 148 °C | Cc1c(OCc2ccccc2)ccc(-c2cc(O)c(SCCc3ccccc3)c(=O)o2)c1O |
| 86 °C | CCCCN(CCCC)c1ccc(C(C#N)=C(C#N)C#N)c(OC)c1 |
| 196 to 198 °C | CN(C)C=C1C[N+]([O-])=C(c2ccccc2Cl)c2cc(Cl)ccc2C1=O |
| 78 to 79 °C | O=Cc1cc(Cc2ccccc2)ccc1O |
| 199 to 201 °C | O=CNNc1ccc(NC(=S)N2CCCC2)cc1 |
| 160 to 161 °C | CC(c1nnnn1C)C(O)(c1ccc(F)cc1)c1ccc(F)cc1 (stereo not given) |
| 106 to 107 °C | CC(C)n1cc(C2CCC(=O)CC2)c2cc(C#N)ccc21 |
| 180 °C | CCc1cccc2c3c([nH]c12)C(CC)(CC(=O)OC)OCC3NC(N)=O (stereo not given) |
| 168 to 169 °C | COc1ccc(NC(=O)c2ccc([N+](=O)[O-])c(OC)c2)cc1 |
| 198 to 201 °C | NC(=O)c1cccc(Cn2ccc(OCc3ccc(F)cc3F)c(Br)c2=O)c1 |
| 127 to 132 °C | Cc1cc([N+](=O)[O-])cc(C)c1Oc1ccc(O)c(Cc2ccc(F)cc2)c1 |
| 185 to 186 °C | Cc1c(C)c2c(c(C)c1NC(=O)NCCCO)C(c1ccc(C(C)C)cc1)CO2 (stereo not given) |
| 136 to 140 °C | Cc1cccc(-c2nc(C(C)C)[nH]c2-c2cccc(-c3ccc(C(=O)N4CCS(=O)CC4)cc3)c2)n1 |
| > 300 °C | CSc1sc(C(N)=O)c2c1-c1oc(C)nc1CC2 |

| melting point | Structure (SMILES) |
| --- | --- |
| 113 to 115 °C | CC(C)Oc1ccc(C(=O)NCCN2CCC(Oc3ccc(Cl)c(Cl)c3)CC2)cc1 |
| 74.5 to 75 °C | O=C(c1ccc(Cl)cc1)c1ccc(OC(F)(F)F)cc1 |
| 267 to 268 °C | COc1cc2c(cc1-c1cnccn1)-c1c(-c3cccs3)c3c(n1CC2)C(=O)N(C(C)(C)C)CCCOC3 |
| 118 to 119 °C | Clc1ccc(-c2ccccc2OCC2CO2)nn1 (stereo not given) |
| 130 to 133 °C | CCC1=NC(NC(=O)Nc2cccc(C)c2)C(=O)N(CC(=O)N2CC3CCC(CC3)C2)c2c(C)cccc21 (stereo not given) |
| 106 to 107 °C | COC(=O)Cc1cn(Cc2ccccc2)nc1OCCCc1cc(O)nn1Cc1ccc(Cl)cc1Cl |
| > 300 °C | Cc1ccnc2c1nc(CO)n2C |
| 181 °C | CC(C)(C)OC(=O)Nc1cc(OCC2COC(=O)O2)c(C#Cc2ccccc2)cc1NC(=O)CC(=O)c1cccc(C#N)c1 (racemic) |
| 220 to 224 °C | N#Cc1cccc(CCc2n[nH]c3c2c(=O)n(-c2ccccc2)c2ncccc32)c1 |
| 137 to 138 °C | Cc1ccc(-c2c(C#N)c(CC(C)C)nc3ccc(OCc4ccccc4)cc23)cc1 |
| 75 to 77 °C | CCCc1c(OCCCOc2ccc(N)cc2)ccc(C(C)=O)c1O |
| 117 to 119 °C | O=C(c1ccc(Oc2ccccc2)cc1)c1cccc(C(=O)c2ccc(Oc3ccccc3)cc2)c1 |
| 215 to 217 °C | N#Cc1ccc2cc(CCCCc3cc4ccc(C#N)cc4o3)oc2c1 |
| 250 to 253 °C | Nc1c(F)c(N2CCCC2)c(F)c2c1c(=O)c(C(=O)O)cn2C1COC1 |
| 208 to 210 °C | CCCNS(=O)(=O)Nc1ncccc1C(=O)OC |
| 66 to 67 °C | CC(C)(C)C(=O)OC1C(c2ccccc2)=C(c2ccc(S(C)(=O)=O)cc2)C1(C)C (stereo not given) |
| 193 to 194 °C | Cc1ccc(C(=O)NC(NC(=NC#N)Nc2cccc(F)c2)C(C)(C)C)cc1 (stereo not given) |
| 192 to 194 °C | Cc1cc2c(cc1C)-n1ccc(=O)nc1CC(c1ccc(-n3c(C)nc4cnccc43)cc1)=N2 |
| 123 to 125 °C | O=S(=O)(Nc1cc(C(F)(F)F)ccc1Oc1ccccc1CO)c1cc(C(F)(F)F)cc(C(F)(F)F)c1 |
| 92 to 93 °C | Cc1ccc(C(=O)c2ccc(SCCO)cc2)cc1C |
| > 300 °C | Cc1ccc(N2C(=O)C(O)=C(C(=O)c3ccc(C(C)C)cc3)C2c2ccc(Cn3cnnn3)cc2)nn1 (stereo not given) |

| Structure (SMILES) | melting point |
| --- | --- |
| CCC1C(C)=NN=C(c2ccc(OC)cc2)c2cc(OC)c(OC)cc21 (stereo not given) | 157 to 159 °C |
| COc1ccc2c(CCNCC#N)c[nH]c2c1 | 80 °C |
| O=c1[nH]c2ccc(Cl)cc2c(=O)n1CCCN1CC=C(c2ccc(Cl)cc2)CC1 | 197 to 198 °C |
| NCCCP(=O)(O)C1SCCS1 | 272 to 274 °C |
| Cc1ccccc1-n1c(Cn2cnc3c(N)ncnc32)nc2cccc(Cl)c2c1=O | 262 to 266 °C |
